Laboratory results reported in publication PMC12051620, “Molecular basis underlying the specificity of an antagonist AA92593 for mammalian melanopsins” (The Journal of Biological Chemistry, 2025).

Columns and labels:
belcheri melanopsin WT = biological target: T1, belcheri melanopsin WT (Branchiostoma belcheri, UniProt Q4R1I4); assay: GsX GloSensor assay with Gsα/q11; assay type: cell-based; settings: 16.7 μM AA92593, COS-1 cells
T1 construct: expressed in transfected cells; host or cells: COS-1
From the text: Non-mammalian-type melanopsins were successfully converted into AA92593-susceptible types by introducing Phe-94^2.61/Ser-188^ECL2/Ser-269^6.52 or Phe-207^5.42 (Fig. 6). We attempted to extend the functional conversion targets to invertebrate melanopsin (see Fig. S2). […] We assessed the susceptibility of belcheri and lanceolatum melanopsins to AA92593 using the GsX GloSensor assay with Gsα/q11. In the absence of AA92593, the belcheri melanopsin produced smaller light-dependent cAMP responses than the other melanopsins assessed in this study (Fig. 7A), whereas the lanceolatum melanopsin produced robust cAMP responses upon light illumination (Fig. 7B). […] On the other hand, responses by the lanceolatum melanopsin were insensitive to the antagonist (Fig. 7B), similar to non-mammalian-type melanopsins (Fig. 6, A and D). […]
(§1) For GloSensor assay, opsins, GloSensor assay sensor (coded by pGlo-22F), and NanoBiT-tagged G proteins were transiently expressed in COS-1 cells (kindly provided from Dr David Farrens, Oregon Health and Science University) using PEI as described previously ([24], [52]). […] For GFP-fluorescence microscopy, a 35-mm cell culture dish (IWAKI) was transfected with 2 μg melanopsin-GFP plasmid and 8 μg PEI in 400 μl Opti-mem and 1.2 ml D-MEM. […]

[1] = system: jumping spider rhodopsin-1 WT; assay: GsX GloSensor assay with Gsα/q11; assay type: cell-based; settings: 16.7 μM AA92593, COS-1 cells
From the text: We next tested the effect of AA92593 on jumping spider rhodopsin-1, a Gq-coupled visual opsin but not melanopsin (see Figs. 2, S2, and S3) ([41]). Similar to non-mammalian-type and invertebrate melanopsins, jumping spider rhodopsin-1 was not sensitive to AA92593 as assessed using the GsX GloSensor assay (Fig. 7L). […] The introduction of I189^ECL2W/Y207^5.42F impaired the light-dependent cAMP responses even in the absence of AA92593 (Fig. S11). Taken together, the non-melanopsin Gq-coupled opsin cannot be functionally converted to an AA92593-sensitive type by site-directed mutagenesis, in contrast to non-mammalian-type and invertebrate melanopsins. […]
as §1

T1 sequence (Q4R1I4 1-410 limits assumed): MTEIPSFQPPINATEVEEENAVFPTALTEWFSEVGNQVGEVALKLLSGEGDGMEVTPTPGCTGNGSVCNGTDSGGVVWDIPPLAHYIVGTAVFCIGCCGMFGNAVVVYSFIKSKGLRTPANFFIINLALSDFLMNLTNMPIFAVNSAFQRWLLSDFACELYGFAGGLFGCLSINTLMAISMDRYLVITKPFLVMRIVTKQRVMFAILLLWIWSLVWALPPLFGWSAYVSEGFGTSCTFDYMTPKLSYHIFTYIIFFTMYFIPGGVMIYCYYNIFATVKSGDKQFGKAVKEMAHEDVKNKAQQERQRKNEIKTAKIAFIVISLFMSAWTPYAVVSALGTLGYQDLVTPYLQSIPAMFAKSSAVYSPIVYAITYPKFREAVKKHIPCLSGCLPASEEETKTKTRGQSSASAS

## COc1ccc(S(=O)(=O)N2CCCCC2)cc1C [AA92593]
Belcheri melanopsin WT
  reduction of light-induced cellular responses by the addition of AA92593: ~34%
[1]
  sensitivity to AA92593: not sensitive
